In US11000033B2, “Ketone or oxime compound, and herbicide” (NISSAN CHEMICAL CORPORATION, priority 2014, dated 2021):

How the values were obtained:
Format in all cases: in vivo
Avena fatua = assay: Test Example 4: herbicidal effect by soil treatment (symbol I); details: application herbicide amount 320 g/ha
Outline: (§1)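 Seeds were sown in sterilized diluvial soil, covered with about 1.5 cm of soil, and the soil surface was sprayed with a water-diluted emulsion of the compound at a predetermined rate. Plants grew in a greenhouse at 25° C. to 30° C.; effects were scored visually 3 weeks after application.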

Stellaria media = assay: Test Example 4: herbicidal effect by soil treatment (symbol P); details: application herbicide amount 320 g/ha
Outline: as §1

Veronica persica [1] = assay: Test Example 4: herbicidal effect by soil treatment (symbol R); details: application herbicide amount 320 g/ha
Outline: as §1

Digitaria ciliaris = assay: Test Example 5: herbicidal effect by foliage application, plastic box (symbol F); details: 320 g/ha, 3 weeks after application
Outline: (§2)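 Emulsion formulation, diluted with water to the intended rate, was applied uniformly to leaves by small sprayer. Recipients were 14-day greenhouse-grown seedlings (25° C. to 30° C.). Assessment followed at 3 weeks.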

Galium spurium [2] = assay: Test Example 5: herbicidal effect by foliage application, plastic box (symbol Q); details: 320 g/ha, 3 weeks after application
Outline: as §2

wheat = assay: Test Example 4: effect on crop by soil treatment (symbol e); details: application herbicide amount 320 g/ha
Outline: (§3)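 Soil-treatment setup: crop and weed seeds were spot-sown into sterilized diluvial soil, then buried beneath approximately 1.5 cm of it, and the boxes were housed in a 25–30° C. greenhouse.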

Galium spurium [3] = assay: Test Example 4: herbicidal effect by soil treatment (symbol Q); details: application herbicide amount 320 g/ha
Outline: as §1

rapeseed = assay: Test Example 4: effect on crop by soil treatment (symbol g); details: application herbicide amount 320 g/ha
Outline: as §3

rice plant = assay: Test Example 5: effect on crop by foliage application, plastic box (symbol b); details: 320 g/ha, 3 weeks after application
Outline: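 Seeds were sown in spots in sterilized diluvial soil held in a plastic box 21 cm × 13 cm × 7 cm deep, covered with about 1.5 cm of soil, and grown in a greenhouse at 25° C. to 30° C.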

Monochoria vaginalis = assay: Test Example 2: herbicidal activity, application during weed generation in submerged conditions (symbol C); details: Table 23; application herbicide amount 320 g/ha; grade 0-5 by criteria of Test Example 1
Outline: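 Alluvial soil in pots was flooded to a 4 cm water depth and sown with a mix of the three weed species, then grown in a greenhouse at 25° C. to 30° C. At the one- to two-leaf stage, an emulsifiable formulation diluted in water to a set dose was applied to the water surface. Effects were scored visually 3 weeks later.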

[4] = tested on: Echinochloa crus-galli var. crus-galli; assay: Test Example 3: herbicidal effect by foliage application, Wagner pot (symbol H); details: application herbicide amount 320 g/ha
Outline: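 Weeds and rice were sown in alluvial soil under 0.1–0.5 cm of standing water and grown for 14 days in a 25–30 °C greenhouse. An emulsion of the compound, diluted in water to a set dose, was sprayed evenly onto the foliage. Effect was scored against fixed criteria 3 weeks after treatment.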

Apera spica-venti = assay: Test Example 4: herbicidal effect by soil treatment (symbol L); details: application herbicide amount 320 g/ha
Outline: as §1

Veronica persica [5] = assay: Test Example 5: herbicidal effect by foliage application, plastic box (symbol R); details: 320 g/ha, 3 weeks after application
Outline: as §2

SMILES | I: Avena fatua, herbicidal effect grade (Avena fatua) | P: Stellaria media, herbicidal effect grade (Stellaria media) | R: Veronica persica, herbicidal effect grade (Veronica persica [1]) | F: Digitaria ciliaris, herbicidal effect grade (Digitaria ciliaris) | Q: Galium spurium, herbicidal effect grade (Galium spurium [2]) | e: wheat, effect on crop grade (wheat) | Q: Galium spurium, herbicidal effect grade (Galium spurium [3]) | g: rapeseed, effect on crop grade (rapeseed) | b: directly sowed rice plant, effect on crop grade (rice plant) | Herbicidal effect grade, C: Monochoria vaginalis (Monochoria vaginalis) | herbicidal effect on H (Echinochloa crus-galli var. crus-galli), grade 0-5 [4] | L: Apera spica-venti, herbicidal effect grade (Apera spica-venti) | R: Veronica persica, herbicidal effect grade (Veronica persica [5])
CCc1cc(C#C[Si](C)(C)C)cc(C)c1C1=C(O)CC(CC(C)=NOC)C1=O (mixture of isomers) [6-008] | 4 (Herbicidal ratio of 70% or higher and lower than 90%) | 0 (Herbicidal ratio of 5% or lower (almost no effect)) | 0 (Herbicidal ratio of 5% or lower (almost no effect)) | 0 (Herbicidal ratio of 5% or lower (almost no effect)) | 0 (Herbicidal ratio of 5% or lower (almost no effect)) | 4 (Herbicidal ratio of 70% or higher and lower than 90%) | 0 (Herbicidal ratio of 5% or lower (almost no effect)) | 0 (Herbicidal ratio of 5% or lower (almost no effect)) | 3 (Herbicidal ratio of 40% or higher and lower than 70%) | 5 (Herbicidal ratio of 90% or more (almost completely withered)) | 5 (Herbicidal ratio of 90% or more (almost completely withered)) | 5 (Herbicidal ratio of 90% or more (almost completely withered)) | 
CCOC(=O)C(C(=O)c1ccccc1)C1CC(O)=C(c2c(C)cc(C)cc2C)C1=O (stereo not drawn) [2-008] | 0 (Herbicidal ratio of 5% or lower (almost no effect)) | 0 (Herbicidal ratio of 5% or lower (almost no effect)) | 0 (Herbicidal ratio of 5% or lower (almost no effect)) | 2 (Herbicidal ratio of 20% or higher and lower than 40%) | 0 (Herbicidal ratio of 5% or lower (almost no effect)) | 0 (Herbicidal ratio of 5% or lower (almost no effect)) | 0 (Herbicidal ratio of 5% or lower (almost no effect)) | 0 (Herbicidal ratio of 5% or lower (almost no effect)) | 4 (Herbicidal ratio of 70% or higher and lower than 90%) | 0 (Herbicidal ratio of 5% or lower (almost no effect)) | 0 (Herbicidal ratio of 5% or lower (almost no effect)) | 0 (Herbicidal ratio of 5% or lower (almost no effect)) | 
CCOC(=O)C(C(=O)CC1CC1)C1CC(O)=C(c2c(C)cc(C)cc2C)C1=O (stereo not drawn) [2-025] | 0 (Herbicidal ratio of 5% or lower (almost no effect)) | 0 (Herbicidal ratio of 5% or lower (almost no effect)) | 0 (Herbicidal ratio of 5% or lower (almost no effect)) | 4 (Herbicidal ratio of 70% or higher and lower than 90%) | 0 (Herbicidal ratio of 5% or lower (almost no effect)) | 0 (Herbicidal ratio of 5% or lower (almost no effect)) | 0 (Herbicidal ratio of 5% or lower (almost no effect)) | 0 (Herbicidal ratio of 5% or lower (almost no effect)) | 4 (Herbicidal ratio of 70% or higher and lower than 90%) |  | 3 (Herbicidal ratio of 40% or higher and lower than 70%) | 0 (Herbicidal ratio of 5% or lower (almost no effect)) | 0 (Herbicidal ratio of 5% or lower (almost no effect))
Cc1cc(C)c(C2=C(O)CC(CC(=O)CC3CC3)C2=O)c(C)c1 (stereo not drawn) [2-026] | 0 (Herbicidal ratio of 5% or lower (almost no effect)) |  | 0 (Herbicidal ratio of 5% or lower (almost no effect)) | 4 (Herbicidal ratio of 70% or higher and lower than 90%) | 0 (Herbicidal ratio of 5% or lower (almost no effect)) | 0 (Herbicidal ratio of 5% or lower (almost no effect)) | 0 (Herbicidal ratio of 5% or lower (almost no effect)) | 4 (Herbicidal ratio of 70% or higher and lower than 90%) | 5 (Herbicidal ratio of 90% or more (almost completely withered)) | 0 (Herbicidal ratio of 5% or lower (almost no effect)) | 5 (Herbicidal ratio of 90% or more (almost completely withered)) | 2 (Herbicidal ratio of 20% or higher and lower than 40%) | 0 (Herbicidal ratio of 5% or lower (almost no effect))
Cc1cc(C)c(C2=C(O)CC(CC(=O)c3ccc(F)cc3)C2=O)c(C)c1 (stereo not drawn) [2-032] | 0 (Herbicidal ratio of 5% or lower (almost no effect)) | 0 (Herbicidal ratio of 5% or lower (almost no effect)) | 0 (Herbicidal ratio of 5% or lower (almost no effect)) | 2 (Herbicidal ratio of 20% or higher and lower than 40%) | 0 (Herbicidal ratio of 5% or lower (almost no effect)) | 0 (Herbicidal ratio of 5% or lower (almost no effect)) | 0 (Herbicidal ratio of 5% or lower (almost no effect)) | 1 (Herbicidal ratio of 5% or higher and lower than 20%) | 5 (Herbicidal ratio of 90% or more (almost completely withered)) | 0 (Herbicidal ratio of 5% or lower (almost no effect)) | 5 (Herbicidal ratio of 90% or more (almost completely withered)) |  | 0 (Herbicidal ratio of 5% or lower (almost no effect))
CON=C(C)CC1CC(O)=C(c2c(C)cc(C(C)=O)cc2C)C1=O (stereo not drawn) [6-026] | 0 (Herbicidal ratio of 5% or lower (almost no effect)) | 0 (Herbicidal ratio of 5% or lower (almost no effect)) | 0 (Herbicidal ratio of 5% or lower (almost no effect)) | 5 (Herbicidal ratio of 90% or more (almost completely withered)) | 0 (Herbicidal ratio of 5% or lower (almost no effect)) | 0 (Herbicidal ratio of 5% or lower (almost no effect)) | 0 (Herbicidal ratio of 5% or lower (almost no effect)) | 0 (Herbicidal ratio of 5% or lower (almost no effect)) | 5 (Herbicidal ratio of 90% or more (almost completely withered)) |  | 5 (Herbicidal ratio of 90% or more (almost completely withered)) | 0 (Herbicidal ratio of 5% or lower (almost no effect)) | 1 (Herbicidal ratio of 5% or higher and lower than 20%)
